Results taken from PMC12683522 (Frontiers in Pharmacology, 2025).

Assays:
[1] = Bioequivalence analysis of test vs reference palbociclib tablets (GLSM ratio, 90% CI); assay type: in vivo, healthy Chinese subjects; details: fasting, rabeprazole pre-treatment
Description: After log-transforming Cmax, AUC0−t, and AUC0‐∞ , analysis of variance (using the PROC MIXED method) was performed via a mixed linear effects model, with formulation, period, and sequence treated as fixed effects and subject nested within sequence as a random effect. Throughout the analyses, missing data were, in principle, not imputed. Bioequivalence was assessed using the two one-sided t-tests, and the 90% confidence interval (CI) for the ratio of the geometric least squares means of the two formulations was calculated. If the CI fell entirely within the range of 80.00%–125.00%, the formulations were deemed bioequivalent. Tmax was evaluated using the non-parametric Wilcoxon signed-rank test, and statistical significance was considered when P < 0.05. Pharmacokinetic parameters were calculated using Phoenix WinNonlin (version 8.3), while the remaining statistical analyses and data processing were performed by SAS software (version 9.4). Continuous variables were presented with descriptive statistics, and categorical data were expressed as frequencies and percentages.

[2] = Single-dose pharmacokinetics of palbociclib tablets under fasting conditions with rabeprazole pre-treatment; assay type: in vivo, healthy Chinese subjects; details: sampling to 96 h after administration
Description: This was a single-center, randomized, open-label, single-dose, two-period crossover bioequivalence study conducted under fasting conditions with rabeprazole pre-treatment. It was carried out at the Phase I Clinical Research Center of Hebei General Hospital in Shijiazhuang, Hebei Province, China, from 12 September 2023, to 27 October 2023. […] Water intake was prohibited from 1 h before to 1 h after each dose (except for breakfast and water used for medication administration). On Day 1, under fasted conditions (at least 10 h), subjects received their seventh dose of rabeprazole and maintained fasting for an additional 4 h. […]
Tmax, t1/2z, elimination rate constant (λz) and percentage of extrapolated residual area (AUC_%Extrap) were the secondary endpoints. […] Cmax and Tmax were determined directly from the observed plasma concentration-time profiles. AUC0-t was calculated using the linear/log trapezoidal method. AUC0‐∞ was determined by formula: AUC0‐∞ = AUC0-t + Ct/λz, where Ct was the last measurable concentration. The slope of the terminal segment of the semi-logarithmic drug-time curve calculated by linear regression is used to obtain λz. t1/2z was calculated as ln2/λz. AUC_%Extrap was determined by formula: AUC_%Extrap = [( AUC0‐∞ - AUC0-t)/ AUC0‐∞ ]×100%. For pharmacokinetic parameters that cannot be calculated due to inapplicable data, they are marked with “-” in the dataset.

[3] = set-up: method as in Eser et al., 2022; details: intragastric pH above 4.5; ref Eser et al., 2022; cited from earlier work
[4] = Safety assessment (adverse events, CTCAE v5.0); assay type: in vivo, healthy Chinese subjects
Description: Safety assessments included AEs, SAEs, concomitant medications, laboratory tests, clinical symptoms, vital sign measurements, 12-lead ECG and physical examination results. […] Laboratory tests, physical examinations, and 12-lead ECG were performed at screening and during the follow-up period. All AEs were monitored throughout the study by the research doctors and spontaneously reported by the subjects. AEs were coded using MedDRA (Medical Dictionary for Regulatory Activities: Version 26.1) and summarized according to System Organ Class (SOC) and Preferred Term (PT), including the number and percentage of subjects experiencing AEs and the frequency of AEs. The severity of AEs was graded according to the Common Terminology Criteria for Adverse Events (CTCAE, Version 5.0) issued by the U.S. National Cancer Institute. Missing safety data were labeled as “Missing” in the datasets and were not imputed in the subsequent analyses.

Intra-subject CV of AUC0-t [1]: 6.14%
Intra-subject CV of AUC0‐∞ [1]: 5.83%
Intra-subject CV of Cmax [1]: 9.65%
share of AUC0‐∞ covered by AUC0-t [2]: 93%
SMILES: CC(=O)c1c(C)c2cnc(Nc3ccc(N4CCNCC4)cn3)nc2n(C2CCCC2)c1=O [palbociclib]
solubility [3]: < 500 µg/mL
severity of AEs ([4]; CTCAE v5.0): mild and reported as grade 1
adverse events confirmed as adverse reactions ([4]; of 28 adverse events in 17 subjects): 4
Sum of treatment-emergent AEs, AE count ([4]; safety analysis set): 28
incidence of AEs ([4]; safety analysis set): 51.5%
serious adverse events (SAEs) ([4]; safety analysis set): No SAEs occurred
